Measurements from publication PMC8391421, “Identification of Novel Positive Allosteric Modulators of Neurotrophin Receptors for the Treatment of Cognitive Dysfunction” (Cells, 2021).
Entries after “also recorded” stand apart in the source; their conditions may differ.

Key:
[1] = test system: Shaffer collaterals-CA1 pathway, hippocampal slices; experiment: Facilitation of long-term potentiation in rat hippocampal slices; conditions: 20 µM added 15 min before Ø burst stimulation; n = 7 slices from 5 rats
Description: Male Sprague Dawley rats (4–5 weeks old) from Charles River Laboratories, Sulzfeld, Germany, were used in these experiments. Rats were deeply anesthetized using isoflurane and decapitated soon after the disappearance of the corneal reflexes. The brains were removed and placed in ice-cold standard artificial CSF (aCSF) solution (124 mM NaCl, 30 mM NaHCO3, 10 mM glucose, 1.25 mM NaH2PO4, 3.5 mM KCl, 1 mM MgCl2, 2 mM CaCl2). Hippocampal horizontal sections (400 µm thick) were prepared using a Leica VT1200S vibratome (Leica Microsystems, Kista, Sweden). Immediately after slicing, sections were transferred into an interface incubation chamber filled with standard aCSF. The chamber was held at 34 °C during the slicing period and was subsequently allowed to cool down to room temperature. […] The facilitation of long-term potentiation (LTP) was monitored in the Shaffer collaterals (SC)-CA1 pathway in the hippocampus. […] Data were normalized with respect to the mean fEPSP slope recorded during the last 10 min of the baseline period.
It has been well-described that the transient, short-term plasticity of synaptic strength induced by a weak stimulation in hippocampal slices can turn into long-term potentiation (LTP) through the exogenous application of BDNF [71, 72, 73]. […] In the control slices, the recorded potentiation decreased to the baseline level after 60 min. […]

C57BL/6J mice = experiment: Morris water maze; format: in vivo, mouse
Description: Male C57BL/6J mice (n = 8/group) from Taconic, Lille Skensved, Denmark, 7–8 weeks of age at arrival, were used in experiments that were predominantly performed as described previously. Vehicle or ACD855 (3 mg/kg; formulated in 20% DMSO in 0.1 M sodium phosphate buffer pH 8.0) was administered daily for the first four days (Day 1–4) through subcutaneous (s.c.) injections (10 mL/kg body weight). During the behavioral training days (Day 5–10), ACD855 or vehicle was administered s.c. 60 min prior to training. Moreover, during the behavioral training days, scopolamine (0.3 mg/kg) or vehicle was administered s.c. 30 min prior to training.

Cc1cc(-n2c(=O)[nH]c(=O)n(C)c2=O)ccc1Oc1ccc(S(=O)(=O)C(F)(F)F)cc1 [ACD855, Toltrazuril-sulfone]
long-lasting potentiation of evoked synaptic responses (fEPSP slope), fold increase [1]: 1.21 ± 0.03 fold | effect of compound by itself on cognitive function (swim latency, Day 1) (C57BL/6J mice; 3 mg/kg s.c., no scopolamine, vs vehicle): seemed to improve cognitive function compared to vehicle; also recorded: improved cognitive function compared to vehicle | effect on scopolamine-induced cognitive impairment (swim latency) (C57BL/6J mice; 3 mg/kg s.c., scopolamine 0.3 mg/kg): significantly blocked; also recorded: completely blocked | retention test (probe trial) (C57BL/6J mice; control vs treated groups): only an improvement trend | swim speed (C57BL/6J mice; control vs treated groups): no significant differences
